Results published in ChEMBL document CHEMBL3400104, “Discovery of a potent, orally available dual CysLT₁ and CysLT₂ antagonist with dicarboxylic acid” (Bioorg Med Chem, 2015).

How the values were obtained:
[1] = biological target: T1, Cysteinyl leukotriene receptor 1 (Homo sapiens, UniProt Q9Y271); test: Antagonist activity at human CysLT1 receptor expressed in CHO cells assessed as inhibition of LTD4-inudced intracellular calcium influx preincubated for 30 mins before LTD4 addition by Fura2-AM assay; assay type: functional, cell-based
T1 sequence (Q9Y271 whole entry): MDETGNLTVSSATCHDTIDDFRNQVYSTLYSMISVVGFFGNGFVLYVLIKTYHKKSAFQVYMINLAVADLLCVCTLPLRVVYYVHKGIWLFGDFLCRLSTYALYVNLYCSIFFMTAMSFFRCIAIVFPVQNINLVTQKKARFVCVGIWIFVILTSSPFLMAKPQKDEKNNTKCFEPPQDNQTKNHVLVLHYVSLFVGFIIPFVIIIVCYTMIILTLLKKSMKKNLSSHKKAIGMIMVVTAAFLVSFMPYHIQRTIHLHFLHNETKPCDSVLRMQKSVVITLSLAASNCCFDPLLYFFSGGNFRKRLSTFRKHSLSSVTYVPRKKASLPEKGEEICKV

[2] = biological target: T2, Cysteinyl leukotriene receptor 2 (Homo sapiens, UniProt Q9NS75); test: Antagonist activity at human CysLT2 receptor expressed in HEK293 cells assessed as inhibition of LTD4-inudced intracellular calcium influx preincubated for 30 mins before LTD4 addition by Fura2-AM assay; assay type: functional, cell-based
T2 sequence (Q9NS75 whole entry): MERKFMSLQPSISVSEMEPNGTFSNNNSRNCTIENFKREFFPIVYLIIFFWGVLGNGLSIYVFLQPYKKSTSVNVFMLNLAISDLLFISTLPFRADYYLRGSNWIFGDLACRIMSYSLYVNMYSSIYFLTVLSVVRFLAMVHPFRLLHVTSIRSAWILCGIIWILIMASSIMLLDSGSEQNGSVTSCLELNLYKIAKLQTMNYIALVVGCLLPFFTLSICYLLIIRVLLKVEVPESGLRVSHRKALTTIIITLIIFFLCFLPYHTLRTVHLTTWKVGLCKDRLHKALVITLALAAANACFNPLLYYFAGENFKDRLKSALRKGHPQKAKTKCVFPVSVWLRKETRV

[3] = Apparent permeability across apical to basolateral or basolateral to apical side in human Caco2 cells at 1 uM after 2 hrs by LC/MS/MS analysis; assay type: ADME, cell-based; settings: Caco-2
[4] = Cmax in rat at 30 mg/kg, po; assay type: ADME, organism-based; set-up: dose 30 mg/kg, route oral; settings: in vivo
[5] = Half life in rat at 30 mg/kg, po; assay type: ADME, organism-based; set-up: dose 30 mg/kg, route oral; settings: in vivo
[6] = AUCinf in rat at 1 mg/kg, iv; assay type: ADME, organism-based; set-up: dose 1 mg/kg, route intravenous, time infinity; settings: plasma
[7] = Volume of distribution at steady state in rat at 1 mg/kg, iv; assay type: ADME, organism-based; set-up: dose 1 mg/kg, route intravenous; settings: in vivo, read-out: Vdss
[8] = Cmax in rat at 10 mg/kg, po; assay type: ADME, organism-based; set-up: dose 10 mg/kg, route oral; settings: in vivo
[9] = Half life in rat at 10 mg/kg, po; assay type: ADME, organism-based; set-up: dose 10 mg/kg, route oral; settings: in vivo
[10] = AUC in rat at 10 mg/kg, po; assay type: ADME, organism-based; set-up: dose 10 mg/kg, route oral; settings: plasma
[11] = Oral bioavailability in rat at 10 mg/kg; assay type: ADME, organism-based; settings: in vivo
[12] = Clearance in rat at 1 mg/kg, iv; assay type: ADME, organism-based; set-up: dose 1 mg/kg, route intravenous; settings: in vivo
[13] = Half life in rat at 1 mg/kg, iv; assay type: ADME, organism-based; set-up: dose 1 mg/kg, route intravenous; settings: in vivo
[14] = AUC in rat at 30 mg/kg, po; assay type: ADME, organism-based; set-up: dose 30 mg/kg, route oral; settings: plasma
[15] = Oral bioavailability in rat at 30 mg/kg; assay type: ADME, organism-based; settings: in vivo
[16] = Apparent permeability of the compound at pH 6.2 by PAMPA; assay type: physicochemical
[17] = Apparent permeability of the compound at pH 7.4 by PAMPA; assay type: physicochemical
Cavia porcellus [18] = test: In vivo inhibition of CysLT1 receptor in po dosed guinea pig assessed as reduction in LTD4-induced bronchoconstriction; assay type: functional, organism-based
Cavia porcellus [19] = test: In vivo inhibition of CysLT1 receptor in guinea pig assessed as reduction in LTD4-induced bronchoconstriction at 3 mg/kg, po relative to vehicle treated control; assay type: functional

Structure (SMILES)	IC50 [1] [µM]	IC50 [2] [µM]	Papp at 2 h, 1 µM [3] [×10⁻⁶ cm/s]	Cmax [4] [ng/mL]	half-life [5] [h]	AUC(0-inf) [6] [ng·h/mL]	Vd [7] [L/kg]	Cmax [8] [ng/mL]	half-life [9] [h]	AUC [10] [ng·h/mL]	bioavailability [11] [%]	clearance [12] [mL/min/kg]	half-life [13] [h]	AUC [14] [ng·h/mL]	bioavailability [15] [%]	Papp [16] [×10⁻⁶ cm/s]	Papp [17] [×10⁻⁶ cm/s]	inhibition (Cavia porcellus [18])	inhibition in vivo at 3 mg/kg (Cavia porcellus [19]) [%]
O=C(O)CCCN1CC(CO)Oc2c(NC(=O)c3ccc(OCCCCc4ccccc4)cc3)cccc21 (stereo unspecified)	0.74	0.41	0.17																
O=C(O)CCCN1CC(c2nnn[nH]2)Oc2c(CCc3ccc(OCCCCc4ccccc4)cc3)cccc21 (stereo unspecified)	0.035	0.015	0.52			1200	0.999	400	2.9	1800	15	15	3.8						
O=C(O)CCCN1CC(C(=O)NS(=O)(=O)c2ccccc2)Oc2c(NC(=O)c3ccc(OCCCCc4ccccc4)cc3)cccc21 (stereo unspecified)	0.07	0.0057	0.06																
O=C(O)CCCN1CC(C(=O)O)Oc2c(/C=C/c3ccc(OCCCCc4ccccc4)cc3)cccc21 (stereo unspecified)	0.07	0.0057	1.3	21000	3.6	24000	0.365					0.77	5.6	203000	29	1.1	0.1		
O=C(O)CCCOc1nc2cccc(/C=C/c3ccc(OCCCCOc4ccccc4)cc3)c2nc1C(=O)O	0.49	0.075	11													11	< 0.1		
O=C(O)CCCn1cc(CC(=O)O)c2c(/C=C/c3ccc(OCCCCOc4ccccc4)cc3)cccc21						28000	0.208	33000	4.7	324000	100	0.65	7.1					Dose-dependent effect	45
O=C(O)CCCN1CC(c2nnn[nH]2)Oc2c(/C=C/c3ccc(OCCCCc4ccccc4)cc3)cccc21 (stereo unspecified)	0.00059	0.0034	0.16																
O=C(O)CCCn1cc(C(=O)O)c(=O)c2c(/C=C/c3ccc(OCCCCOc4ccccc4)cc3)cccc21	0.25	0.37	13													13	12		
O=C(O)CCCN1CC(C(=O)O)Oc2c(OCc3ccc(OCCCCc4ccccc4)cc3)cccc21 (stereo unspecified)	0.058		0.74	5600	7.4	7900	0.18					2.2	6	48000	20				
O=C(O)CCCN1CCOc2c(NC(=O)c3ccc(OCCCCc4ccccc4)cc3)cccc21	1.9	4.3	0.17																

Further lines, with some results ahead:

IC50 [1] [µM]	IC50 [2] [µM]	Papp at 2 h, 1 µM [3] [×10⁻⁶ cm/s]	Cmax [4] [ng/mL]	half-life [5] [h]	AUC(0-inf) [6] [ng·h/mL]	Vd [7] [L/kg]	Cmax [8] [ng/mL]	half-life [9] [h]	AUC [10] [ng·h/mL]	bioavailability [11] [%]	clearance [12] [mL/min/kg]	half-life [13] [h]	AUC [14] [ng·h/mL]	bioavailability [15] [%]	Papp [16] [×10⁻⁶ cm/s]	Papp [17] [×10⁻⁶ cm/s]	Structure (SMILES)	inhibition (Cavia porcellus [18])	inhibition in vivo at 3 mg/kg (Cavia porcellus [19]) [%]
		0.18	210	3.2	3500	0.104											O=C(O)CCCN1CC(C(=O)O)Oc2c(NC(=O)c3ccc(OCCCCc4ccccc4)cc3)cccc21 (stereo unspecified)		
0.082	0.016	2.8	12000	2.5	3700	1.46					4.8	6	88000	79			O=C(O)CCCN1CC(C(=O)O)Oc2c(CCc3ccc(OCCCCc4ccccc4)cc3)cccc21 (stereo unspecified)		
0.024	0.00031	7.8													7.8	< 0.1	O=C(O)CCCN1CC(C(=O)O)Oc2c(/C=C/c3ccc(OCCCCOc4ccccc4)cc3)cccc21 (stereo unspecified)		
0.00079	0.00049	0.11	40	11	2100	0.342					7.8	4	700	1			O=C(O)CCCN1CC(c2nnn[nH]2)Oc2c(NC(=O)c3ccc(OCCCCc4ccccc4)cc3)cccc21 (stereo unspecified)		
0.022	0.016	0.06															CS(=O)(=O)NC(=O)C1CN(CCCC(=O)O)c2cccc(NC(=O)c3ccc(OCCCCc4ccccc4)cc3)c2O1 (stereo unspecified)		
